Structures are written as SMILES.

This assay has as its target T1, endothelial lipase (EL) (Homo sapiens, UniProt Q9Y5X9).
T1 construct: made in house; host or cells: recombinant cell lines (CHO, HEK293); concentrated conditioned medium used as enzyme solution
T1 sequence (Q9Y5X9 21-500): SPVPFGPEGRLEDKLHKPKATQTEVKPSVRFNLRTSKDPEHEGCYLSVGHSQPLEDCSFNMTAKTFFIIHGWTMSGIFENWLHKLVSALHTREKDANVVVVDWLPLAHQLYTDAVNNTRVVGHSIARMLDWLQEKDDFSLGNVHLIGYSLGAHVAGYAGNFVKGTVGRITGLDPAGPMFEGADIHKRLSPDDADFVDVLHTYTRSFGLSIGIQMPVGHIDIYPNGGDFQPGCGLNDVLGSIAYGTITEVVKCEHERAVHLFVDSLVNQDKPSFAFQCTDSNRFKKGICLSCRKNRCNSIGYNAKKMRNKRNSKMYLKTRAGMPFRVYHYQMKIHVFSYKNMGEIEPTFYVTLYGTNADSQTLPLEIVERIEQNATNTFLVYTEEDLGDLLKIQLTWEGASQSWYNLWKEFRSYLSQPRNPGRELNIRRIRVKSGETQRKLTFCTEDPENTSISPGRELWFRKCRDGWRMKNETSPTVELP
Briefly: EL inhibition assay (EL activity assay, fluorescent Bodipy-labelled phospholipid substrate). It counts as biochemical. The conditions noted are these: enzyme solution = conditioned medium of recombinant cell lines (CHO, HEK293); 37° C., 90 minutes; pH=7.4. The text has this:
EL is released as secretory protein in high concentration into cell culture medium (conditioned medium) by recombinant cell lines (CHO, HEK293). This is employed as enzyme solution after concentration.
The phospholipase-specific substrate 1,2-bis(4,4-difluoro-5,7-dimethyl-4-bora-3a,4a-diaza-s-indacene-3-undecanoyl)-sn-glycero-3-phosphocholine, (manufacturer Molecular Probes) is used to characterize the enzymatic activity of endothelial lipase and the effect of inhibitors. Hydrolysis of the A1 ester linkage of this phospholipid by the enzyme liberates a fatty acid labeled with the fluorescent dye Bodipy which can be detected after separation by thin-layer chromatography on an HPTLC plate (silica gel 60, Merck) or directly in the reaction vessel by measuring the fluorescence. The substrate solution is prepared by dissolving 100 μg of 1,2-bis(4,4-difluoro-5,7-dimethyl-4-bora-3a,4a-diaza-s-indacene-3-undecanoyl)-sn-glycero-3-phospho-choline (manufacturer Molecular Probes) in 100 μl of DMSO and taking it up in 2.4 mg of tripalmitin (Sigma) in 393 μl of chloroform which contains 20 mg/ml of DOP-choline (1,2-dioleoyl-sn-glycero-3-phosphocholine). 39.3 μl of this lipid mixture are transferred into a fresh reaction vessel. After evaporation of the solvent, the lipid mixture is dissolved in 4 ml of 200 mM TRIS-HCl, 150 mM sodium chloride, pH=7.4, by sonication twice. The subsequent enzymic reaction takes place at 37° C. for 90 minutes. For this purpose, 20 μl of the substrate solution are incubated with 2 μl of inhibitor of appropriate concentration (dissolved in 10% DMSO, 10% strength DMSO solution is used as control) and 2 μl of enzyme solution (conditioned medium). Then 4 μl of the assay mixture are loaded onto an HPTLC plate (silica gel 60, Merck), and the liberated fluorescent dye is separated for detection with an eluent (diethyl ether:petroleum benzine:acetic acid [78:22:1]). After evaporation of the eluent, the plate is read in a fluorescence scanner. An increased release of the fluorescent dye in the uninhibited reaction is to be observed as a measure of the enzymic activity.
The enzymatic activity is reduced as a function of the inhibitor concentration used, and the inhibitor concentration at which a half-maximum enzymic activity is observed is called IC50.

On to `CCCCCCNC(=O)N1C(=O)CN(Cc2ccccc2)C1=O` [Example 1, 3-Benzyl-2,5-dioxoimidazolidine-1-hexylcarboxamide], for which the IC50 amounted to 0.005 µM.
Consider `Cc1ccccc1CNC(=O)N1C(=O)CN(Cc2ccccc2)C1=O` [Example 2, 3-Benzyl-2,5-dioxoimidazolidine-1-(2-methylbenzyl)carboxamide], for which the IC50 was found to be 0.147 µM.
The figure for `O=C1CN(Cc2ccccc2)C(=O)N1C(=O)N[C@H]1CCc2ccccc21` [Example 3, 3-Benzyl-2,5-dioxoimidazolidine-1-((S)-indan-1-yl)carboxamide] is 0.145 µM.
As to `O=C1CN(Cc2ccccc2)C(=O)N1C(=O)N[C@@H]1CCc2ccccc21` [Example 4, 3-Benzyl-2,5-dioxoimidazolidine-1-((R)-indan-1-yl)carboxamide], the IC50 came to 0.0005 µM.
Turning to `O=C1CN(Cc2ccccc2)C(=O)N1C(=O)NC1CCCc2ccccc21` (centres unmarked) [Example 5, 3-Benzyl-2,5-dioxoimidazolidine-1-(1,2,3,4-tetrahydronaphthalen-1-yl)carboxamide], the IC50 amounted to 0.008 µM.
The value for `O=C1CN(Cc2ccccc2)C(=O)N1C(=O)NCCc1cccs1` [Example 6, 3-Benzyl-2,5-dioxoimidazolidine-1-(2-thiophen-2-ylethyl)carboxamide] was 0.143 µM; that for `CCCCCCCNC(=O)N1C(=O)CN(Cc2ccccc2)C1=O` [Example 7, 3-Benzyl-2,5-dioxoimidazolidine-1-heptylcarboxamide] was 0.083 µM.
Consider `CCCCCCNC(=O)N1C(=O)CN(C)C1=O` [Example 8, 3-Methyl-2,5-dioxoimidazolidine-1-hexyl carboxamide], for which the IC50 came to 0.047 µM.
The value for `CCCCCCNC(=O)N1C(=O)N(C)C(C)(C)C1=O` [Example 9, 3,4,4-Trimethyl-2,5-dioxoimidazolidine-1-hexylcarboxamide] was 0.037 µM.
On to `CCCCCCCNC(=O)N1C(=O)CN(CCCC)C1=O` [Example 21, 3-Butyl-2,5-dioxoimidazolidine-1-heptylcarboxamide], for which the IC50 was found to be 0.059 µM.
The value for `CCCCCCNC(=O)N1C(=O)C2CCCCN2C1=O` (centres unmarked) [Example 23, 1,3-Dioxohexahydroimidazo[1,5-a]pyridine-2-hexylcarboxamide] was 0.044 µM; that for `CCCCCCNC(=O)N1C(=O)C2Cc3ccccc3CN2C1=O` (centres unmarked) [Example 24, 1,3-Dioxo-1,5,10,10a-tetrahydroimidazo[1,5-b]isoquinoline-2-hexylcarboxamide] was 0.039 µM.
The value for `O=C(NC1CCCc2ccccc21)N1C(=O)C2Cc3ccccc3CN2C1=O` (centres unmarked) [Example 28, 1,3-Dioxo-1,5,10,10a-tetrahydroimidazo[1,5-b]isoquinoline-2-(1,2,3,4-tetra-hydronaphthalen-1-yl)carboxamide] was 0.059 µM; that for `Cc1ccccc1CNC(=O)N1C(=O)C2Cc3ccccc3CN2C1=O` (centres unmarked) [Example 29, 1,3-Dioxo-1,5,10,10a-tetrahydroimidazo[1,5-b]isoquinoline-2-methylbenzyl-2-carboxamide] was 0.143 µM.

The values above are taken from US8735437B2, “Imidazolidine carboxamide derivatives as lipase and phospholipase inhibitors” (Sanofi, priority 2007, dated 2014).
